Results reported in patent US12522601B2, “1,3,4-oxadiazole derivative compounds as histone deacetylase 6 inhibitor, and the pharmaceutical composition comprising the same” (CHONG KUN DANG PHARMACEUTICAL CORP., priority 2020, dated 2026).

Columns and labels:
human recombinant HDAC1 = biological target: T1, human recombinant HDAC1 (Homo sapiens, UniProt Q13547); assay: In vitro HDAC enzyme activity inhibition assay, HDAC1 (HDAC Fluorimetric Drug Discovery Kit); format: biochemical; conditions: human recombinant HDAC1, Fluor de Lys-SIRT1 substrate 10 μM, 30° C. for 60 minutes
T1 construct: purchased Enzo Life Sciences, Inc. BML-SE456
T1 sequence (Q13547 whole entry): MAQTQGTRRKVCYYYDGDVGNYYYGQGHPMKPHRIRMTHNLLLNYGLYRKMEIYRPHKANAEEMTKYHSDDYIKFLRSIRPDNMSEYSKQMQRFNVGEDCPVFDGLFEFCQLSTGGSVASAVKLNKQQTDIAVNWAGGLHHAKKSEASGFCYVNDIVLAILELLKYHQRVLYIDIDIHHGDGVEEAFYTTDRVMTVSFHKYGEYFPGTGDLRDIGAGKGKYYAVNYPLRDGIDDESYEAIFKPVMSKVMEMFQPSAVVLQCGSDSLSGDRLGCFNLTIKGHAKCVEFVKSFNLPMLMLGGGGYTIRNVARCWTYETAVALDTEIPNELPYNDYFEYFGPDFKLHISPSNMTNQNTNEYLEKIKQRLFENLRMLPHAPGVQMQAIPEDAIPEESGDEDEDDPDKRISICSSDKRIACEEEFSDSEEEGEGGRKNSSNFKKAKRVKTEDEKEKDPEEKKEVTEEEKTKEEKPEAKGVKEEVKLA
How it was run: (§1)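 Both HDAC1 and HDAC6 (human recombinant, 0.3 μg) tested identically: 10 μM fluorogenic Fluor de Lys-SIRT1 substrate, reaction 60 min at 30° C, developer added for 30 min. IC50 calculated from Ex 360/Em 460 signal over 5-fold serial dilutions.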

human recombinant HDAC6 = biological target: T2, human recombinant HDAC6 (Homo sapiens, UniProt Q9UBN7); assay: In vitro HDAC enzyme activity inhibition assay, HDAC6 (HDAC Fluorimetric Drug Discovery Kit); format: biochemical; conditions: for HDAC6 Selectivity (fold): HDAC6 versus HDAC1; for IC50: human recombinant HDAC6, same protocol as the HDAC1 test
T2 construct: purchased Calbiochem Inc. 382180
T2 sequence (Q9UBN7 1-1215): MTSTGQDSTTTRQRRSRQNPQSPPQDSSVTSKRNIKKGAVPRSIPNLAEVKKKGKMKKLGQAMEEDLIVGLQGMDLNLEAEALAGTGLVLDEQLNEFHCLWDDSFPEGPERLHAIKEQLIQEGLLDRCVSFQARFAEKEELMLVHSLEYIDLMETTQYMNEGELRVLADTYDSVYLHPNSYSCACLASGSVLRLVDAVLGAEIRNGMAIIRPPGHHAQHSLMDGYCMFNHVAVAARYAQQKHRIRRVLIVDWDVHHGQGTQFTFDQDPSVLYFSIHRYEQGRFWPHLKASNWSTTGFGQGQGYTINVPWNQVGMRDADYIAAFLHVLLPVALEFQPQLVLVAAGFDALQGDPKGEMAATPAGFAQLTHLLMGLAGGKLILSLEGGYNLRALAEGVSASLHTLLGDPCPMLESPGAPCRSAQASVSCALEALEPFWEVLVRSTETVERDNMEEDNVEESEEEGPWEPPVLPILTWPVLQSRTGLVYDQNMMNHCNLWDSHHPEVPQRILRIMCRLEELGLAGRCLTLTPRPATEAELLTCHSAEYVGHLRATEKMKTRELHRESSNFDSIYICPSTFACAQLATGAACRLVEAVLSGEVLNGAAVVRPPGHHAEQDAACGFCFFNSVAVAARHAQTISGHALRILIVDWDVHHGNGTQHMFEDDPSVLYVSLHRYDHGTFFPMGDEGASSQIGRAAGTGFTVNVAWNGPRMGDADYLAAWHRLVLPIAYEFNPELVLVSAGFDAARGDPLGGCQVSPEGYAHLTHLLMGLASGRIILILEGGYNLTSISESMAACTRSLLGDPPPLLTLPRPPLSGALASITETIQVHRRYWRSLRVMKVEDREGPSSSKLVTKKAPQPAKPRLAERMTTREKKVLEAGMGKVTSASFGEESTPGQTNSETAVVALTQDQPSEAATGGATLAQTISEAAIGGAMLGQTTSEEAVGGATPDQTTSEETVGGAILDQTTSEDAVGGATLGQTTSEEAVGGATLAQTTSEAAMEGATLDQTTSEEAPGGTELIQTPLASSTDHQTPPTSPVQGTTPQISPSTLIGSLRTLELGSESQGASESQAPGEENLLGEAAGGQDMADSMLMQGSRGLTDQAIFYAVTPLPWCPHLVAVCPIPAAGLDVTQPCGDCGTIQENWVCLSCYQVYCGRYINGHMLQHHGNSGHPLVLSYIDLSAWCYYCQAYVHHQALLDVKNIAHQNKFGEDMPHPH
How it was run: as §1

Structure (SMILES)	IC50 (human recombinant HDAC1) [nM]	HDAC6 Selectivity (fold) (human recombinant HDAC6)	IC50 (human recombinant HDAC6) [nM]
O=C(C1CCN(C2COC2)CC1)N(Cc1cn2ccc(-c3nnc(C(F)F)o3)cc2n1)c1cccc(F)c1 [Compound 4142, N-((7-(5-(difluoromethyl)-1,3,4-oxadiazol-2-yl)imidazo[1,2-a]pyridin-2-yl)methyl)-N-(3-fluorophenyl)-1-(oxetan-3-yl)piperidine-4-carboxamide]	> 50000	234	214
O=C(C1CCN(C2CCCCC2)CC1)N(Cc1cn2ccc(-c3nnc(C(F)F)o3)cc2n1)c1cccc(F)c1 [Compound 4143, 1-cyclohexyl-N-((7-(5-(difluoromethyl)-1,3,4-oxadiazol-2-yl)imidazo[1,2-a]pyridin-2-yl)methyl)-N-(3-fluorophenyl)piperidine-4-carboxamide]	> 50000	335	149
O=C(C1CCN(C2CCOCC2)CC1)N(Cc1cn2ccc(-c3nnc(C(F)F)o3)cc2n1)c1cccc(F)c1 [Compound 4144, N-((7-(5-(difluoromethyl)-1,3,4-oxadiazol-2-yl)imidazo[1,2-a]pyridin-2-yl)methyl)-N-(3-fluorophenyl)-1-(tetrahydro-2H-pyran-4-yl)piperidine-4-carboxamide]	> 50000	206	243
O=C(C1CCN(C2CCC(F)(F)CC2)CC1)N(Cc1cn2ccc(-c3nnc(C(F)F)o3)cc2n1)c1cccc(F)c1 [Compound 4145, 1-(4,4-difluorocyclohexyl)-N-((7-(5-(difluoromethyl)-1,3,4-oxadiazol-2-yl)imidazo[1,2-a]pyridin-2-yl)methyl)-N-(3-fluorophenyl)piperidine-4-carboxamide]	> 50000	217	230
CC(=O)N1CCC(C(=O)N(Cc2cn3ccc(-c4nnc(C(F)F)o4)cc3n2)c2cccc(F)c2)CC1 [Compound 4146, 1-acetyl-N-((7-(5-(difluoromethyl)-1,3,4-oxadiazol-2-yl)imidazo[1,2-a]pyridin-2-yl)methyl)-N-(3-fluorophenyl)piperidine-4-carboxamide]	> 50000	206	243
CCC(=O)N1CCC(C(=O)N(Cc2cn3ccc(-c4nnc(C(F)F)o4)cc3n2)c2cccc(F)c2)CC1 [Compound 4147, N-((7-(5-(difluoromethyl)-1,3,4-oxadiazol-2-yl)imidazo[1,2-a]pyridin-2-yl)methyl)-N-(3-fluorophenyl)-1-propionylpiperidine-4-carboxamide]	> 50000	126	396
O=C(CO)N1CCC(C(=O)N(Cc2cn3ccc(-c4nnc(C(F)F)o4)cc3n2)c2cccc(F)c2)CC1 [Compound 4149, N-((7-(5-(difluoromethyl)-1,3,4-oxadiazol-2-yl)imidazo[1,2-a]pyridin-2-yl)methyl)-N-(3-fluorophenyl)-1-(2-hydroxyacetyl)piperidine-4-carboxamide]	> 50000	335	149
O=C(C1CCC1)N1CCC(C(=O)N(Cc2cn3ccc(-c4nnc(C(F)F)o4)cc3n2)c2cccc(F)c2)CC1 [Compound 4150, 1-(cyclobutanecarbonyl)-N-((7-(5-(difluoromethyl)-1,3,4-oxadiazol-2-yl)imidazo[1,2-a]pyridine-2-yl)methyl)-N-(3-fluorophenyl)piperidine-4-carboxamide]	> 50000	234	214
O=C(C1COC1)N1CCC(C(=O)N(Cc2cn3ccc(-c4nnc(C(F)F)o4)cc3n2)c2cccc(F)c2)CC1 [Compound 4151, N-((7-(5-(difluoromethyl)-1,3,4-oxadiazol-2-yl)imidazo[1,2-a]pyridin-2-yl)methyl)-N-(3-fluorophenyl)-1-(oxetane-3-carbonyl)piperidine-4-carboxamide]	> 50000	245	204
O=C(C1CCN(C(=O)C(F)(F)F)CC1)N(Cc1cn2ccc(-c3nnc(C(F)F)o3)cc2n1)c1cccc(F)c1 [Compound 4152, N-((7-(5-(difluoromethyl)-1,3,4-oxadiazol-2-yl)imidazo[1,2-a]pyridin-2-yl)methyl)-N-(3-fluorophenyl)-1-(2,2,2-trifluoroacetyl)piperidine-4-carboxamide]	> 50000	245	204
CS(=O)(=O)N1CCC(C(=O)N(Cc2cn3ccc(-c4nnc(C(F)F)o4)cc3n2)c2cccc(F)c2)CC1 [Compound 4153, N-((7-(5-(difluoromethyl)-1,3,4-oxadiazol-2-yl)imidazo[1,2-a]pyridin-2-yl)methyl)-N-(3-fluorophenyl)-1-(methylsulfonyl)piperidine-4-carboxamide]	> 50000	363	138

More lines, now with the values ahead:

IC50 (human recombinant HDAC1) [nM]	HDAC6 Selectivity (fold) (human recombinant HDAC6)	IC50 (human recombinant HDAC6) [nM]	Structure (SMILES)
> 50000	91	547	O=C(C1CCN(c2ccccn2)CC1)N(Cc1cn2ccc(-c3nnc(C(F)F)o3)cc2n1)c1ccccc1 [Compound 4131, N-((7-(5-(difluoromethyl)-1,3,4-oxadiazol-2-yl)imidazo[1,2-a]pyridin-2-yl)methyl)-N-phenyl-1-(pyridin-2-yl)piperidine-4-carboxamide]
> 50000	76	655	O=C(C1CCN(c2ncccn2)CC1)N(Cc1cn2ccc(-c3nnc(C(F)F)o3)cc2n1)c1ccccc1 [Compound 4132, N-((7-(5-(difluoromethyl)-1,3,4-oxadiazol-2-yl)imidazo[1,2-a]pyridin-2-yl)methyl)-N-phenyl-1-(pyrimidin-2-yl)piperidine-4-carboxamide]
> 50000	283	177	CN1CCC(C(=O)N(Cc2cn3ccc(-c4nnc(C(F)F)o4)cc3n2)c2cccc(F)c2)CC1 [Compound 4137, N-((7-(5-(difluoromethyl)-1,3,4-oxadiazol-2-yl)imidazo[1,2-a]pyridin-2-yl)methyl)-N-(3-fluorophenyl)-1-methylpiperidine-4-carboxamide]
> 50000	292	171	CCN1CCC(C(=O)N(Cc2cn3ccc(-c4nnc(C(F)F)o4)cc3n2)c2cccc(F)c2)CC1 [Compound 4138, N-((7-(5-(difluoromethyl)-1,3,4-oxadiazol-2-yl)imidazo[1,2-a]pyridin-2-yl)methyl)-1-ethyl-N-(3-fluorophenyl)piperidine-4-carboxamide]
> 50000	403	124	CC(C)N1CCC(C(=O)N(Cc2cn3ccc(-c4nnc(C(F)F)o4)cc3n2)c2cccc(F)c2)CC1 [Compound 4139, N-((7-(5-(difluoromethyl)-1,3,4-oxadiazol-2-yl)imidazo[1,2-a]pyridin-2-yl)methyl)-N-(3-fluorophenyl)-1-isopropylpiperidine-4-carboxamide]
> 50000	246	203	CC(CO)N1CCC(C(=O)N(Cc2cn3ccc(-c4nnc(C(F)F)o4)cc3n2)c2cccc(F)c2)CC1 (stereo not drawn) [Compound 4140, N-((7-(5-(difluoromethyl)-1,3,4-oxadiazol-2-yl)imidazo[1,2-a]pyridin-2-yl)methyl)-N-(3-fluorophenyl)-1-(1-hydroxypropan-2-yl)piperidine-4-carboxamide]
> 50000	204	245	O=C(C1CCN(C2CCC2)CC1)N(Cc1cn2ccc(-c3nnc(C(F)F)o3)cc2n1)c1cccc(F)c1 [Compound 4141, 1-cyclobutyl-N-((7-(5-(difluoromethyl)-1,3,4-oxadiazol-2-yl)imidazo[1,2-a]pyridin-2-yl)methyl)-N-(3-fluorophenyl)piperidine-4-carboxamide]
